# Patent publication US20240252670A1, “ANTIBODY DRUG CONJUGATE, PREPARATION METHOD THEREFOR AND APPLICATION THEREOF” (TSINGHUA UNIVERSITY, priority 2021, published 2024)
# Key:
# B16 cells = assay: Internalization of pHrodo red labeled anti-PD-L1 THIOMAB in cancer cells (IncuCyte); type: cell-based, mouse; settings: 24 h, pHrodo red labeled antibody, control 98.53
# Protocol: (§1) After MC38 and B16 cells were treated for 24 hours with anti-PD-L1 THIOMAB labeled with pHrodo™ red dye, A. high-definition phase images, red fluorescence images and combined images of cells were collected by using an IncuCyte® viable cell system; B. a total red object integrated intensity histogram was obtained by analysis using IncuCyte® software, wherein the logarithm of 10 was taken for the ordinate data. Student's t test was used to compare significant differences between the groups, and p<0.0001 is represented by ****.
# (§2) The pHrodo™ red dye is known to be a pH sensitive fluorescent dye, which rapidly increases in molecular fluorescence intensity when the surrounding environment becomes acidic (Lehrman et al., 2018). When the dye was internalized into the cells along with the antigen-antibody complex, the pH of the environment around the dye was reduced to acidity, thereby producing an observable fluorescence signal. This property allowed the internalization process of the antibody to be monitored by using the pHrodo™ red dye. Through the IncuCyte® viable cell analysis system, the inventors could perform image-based monitoring and quantitative analysis on the internalization process of the anti-PD-L1 antibody labeled with the pHrodo™ red dye. […]
# MC38 cells = assay: as above; type: cell-based, mouse; settings: 24 h, pHrodo red labeled antibody, control 84.88
# Protocol: as §1, §2
# MC38 tumor = assay: Anti-tumor activity and survival in MC38 mouse tumor model; type: in vivo; settings: MC38 mice, i.p.; antibody drugs 150 μg per mouse, D18 25 μg per mouse; schedule Table 1
# From the text: (§3) A. Treatment with ADC HE-S2, single administration of anti-PD-L1 antibody, D18, or anti-PD-L1 THIOMAB, and anti-PD-L1 antibody/D18 combined administration for inhibitory activity against mouse MC38 tumor growth. B. Whole animal survival study. The ordinate of the curve represents the percentage of tumor-bearing mice that remained alive after different days, and the abscissa thereof represents the number of experimental days. C. Treatment with ADC HE-S2, single administration of anti-PD-L1 antibody, D18, or anti-PD-L1 THIOMAB, and anti-PD-L1 antibody/D18 combined administration for inhibitory activity against mouse MC38 tumor growth. Student's t test was used to compare significant differences between the groups, and p<0.001 is represented by ***.
# To verify the anti-cancer activity of ADC HE-S2, the inventors first made a mouse model with MC38. After the tumor was loaded, a visible tumor could be observed on the mouse surface for about one week. When the mean tumor tissue volume of the mice reached 100 mm^3, the mice were randomly grouped as follows according to the final type of drug administered: IgG isotype control antibody group (abbreviated as IgG), anti-PD-L1 antibody group (anti-PD-L1), anti-PD-L1 THIOMAB group (Thiomab), D18 group (D18), D18/anti-PD-L1 antibody combination treatment group (anti-PD-L1 & D18), and ADC HE-S2 group (ADC HE-S2), with 7-8 mice per group. The IgG isotype control antibody group, the anti-PD-L1 antibody (i.e., avelumab as described in Example 2) group, and the anti-PD-L1 THIOMAB (i.e., mutant antibody prepared in Example 2) group were administered twice a week via intraperitoneal injection of 150 μg per mouse for each time. The D18 group was administered twice a week via intraperitoneal injection of 25 μg per mouse for each time. In the D18/anti-PD-L1 antibody combination treatment group, the anti-PD-L1 antibody was dosed twice a week, 150 μg per mouse for each time; the D18 was dosed […], 25 μg per mouse for each time; in the ADC HE-S2 group, ADC HE-S2 was dosed once a week via intraperitoneal injection of 150 μg per mouse for each time; the anti-PD-L1 antibody was dosed once a week, staggered from the administration of the ADC, via intraperitoneal injection of 150 μg per mouse for each time.
# (§4) Dosage: Antibody drugs, administered 150 μg per mouse for each time, and D18, administered 25 μg per mouse for each time. - means no administration on the day. * Only mice with MC38 tumor model were allowed to be administered until the 24th day, and mice with B16 tumor model were no longer administered after the 21st day.
# B16 melanoma = assay: Anti-tumor activity in B16 melanoma mouse model; type: in vivo; settings: B16 mice, i.p.; antibody drugs 150 μg, D18 25 μg per mouse; dosing to day 21
# From the text: as §3
# B16 melanoma is a tumor with low PD-L1 level and certain drug resistance to PD-1/PD-L1 blocking treatment. As a result, as expected by the inventors, the inhibitory effect of each drug on B16 melanoma was reduced relative to the MC38 tumor.
# as §4
substance,measurement,setting,value
"anti-PD-L1 THIOMAB: mutant avelumab, light chain V205C (SEQ ID NO: 9), heavy chain SEQ ID NO: 4; pHrodo red labeled in internalization tests",total red object integrated intensity,B16 cells,283613.60
same,total red object integrated intensity,MC38 cells,13701.63
same,inhibitory activity against MC38 tumor growth,MC38 tumor,slightly superior to the efficacy of the IgG isotype antibody
same,inhibitory effect on B16 melanoma,B16 melanoma,almost comparative to that of the IgG isotype antibody
